System: NCI-H510 multicellular tumor spheroid growth, % test/control
Assay: Anticancer human tumor NCI-H510 cell line growth inhibition [Asc];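 further: spheroids exposed to agents for 7 days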;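 on viability, T/C: 100% = DMSO vehicle control wells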
Settings: for IC50: curve of first compound; for viability, T/C: stronger effect = lower value
Summary of the method: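 Tumor cells were grown as complex spheroids with human endothelial cells (HUVEC) and human mesenchymal stem cells as stroma. Agents were tested alone and in combination, in half-log steps down from the clinical Cmax, or from 10 microM where Cmax was unknown.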

**Q.** Which IC50 (second compound 0.01 µM) does the source give for `CCN1CCN(Cc2ccc(Nc3ncc(F)c(-c4cc(F)c5nc(C)n(C(C)C)c5c4)n3)nc2)CC1` + CNC(C)C(=O)NC1CN(S(=O)(=O)c2cccc(S(=O)(=O)N3CCC4CCC(C(=O)NC(c5ccccc5)c5ccccc5)N4C(=O)C(NC(=O)C(C)NC)C3)c2)CCC2CCC(C(=O)NC(c3ccccc3)c3ccccc3)N2C1=O here?
**A.** > 1000 nM

**Q.** What about the IC50 (second compound 0.0316 µM) of the same molecule?
**A.** > 1000 nM

**Q.** And the IC50 (second compound 0.1 µM)?
**A.** > 1000 nM

**Q.** And the IC50 (second compound 0.316 µM)?
**A.** > 1000 nM

**Q.** And the IC50 (second compound 1 µM)?
**A.** > 1000 nM

**Q.** And the viability, T/C (second compound 0.01 µM, first compound 0.00316 µM)?
**A.** 109%

**Q.** And the viability, T/C (second compound 0.01 µM, first compound 0.01 µM)?
**A.** 117%

**Q.** What about the viability, T/C (second compound 0.01 µM, first compound 0.0316 µM) of the same molecule?
**A.** 124%

**Q.** And the viability, T/C (second compound 0.01 µM, first compound 0.1 µM)?
**A.** 112%

**Q.** What about the viability, T/C (second compound 0.01 µM, first compound 0.316 µM) of the same molecule?
**A.** 150%

**Q.** What about the viability, T/C (second compound 0.01 µM, first compound 1 µM) of the same molecule?
**A.** 128%

**Q.** What about the viability, T/C (second compound 0.0316 µM, first compound 0.00316 µM) of the same molecule?
**A.** 108%

**Q.** What about the viability, T/C (second compound 0.0316 µM, first compound 0.01 µM) of the same molecule?
**A.** 94%

**Q.** What about the viability, T/C (second compound 0.0316 µM, first compound 0.0316 µM) of the same molecule?
**A.** 114%

**Q.** And the viability, T/C (second compound 0.0316 µM, first compound 0.1 µM)?
**A.** 113%

**Q.** What about the viability, T/C (second compound 0.0316 µM, first compound 0.316 µM) of the same molecule?
**A.** 117%

**Q.** What about the viability, T/C (second compound 0.0316 µM, first compound 1 µM) of the same molecule?
**A.** 136%

**Q.** And the viability, T/C (second compound 0.1 µM, first compound 0.00316 µM)?
**A.** 113%

**Q.** And the viability, T/C (second compound 0.1 µM, first compound 0.01 µM)?
**A.** 95.5%

**Q.** And the viability, T/C (second compound 0.1 µM, first compound 0.0316 µM)?
**A.** 99.3%

**Q.** What about the viability, T/C (second compound 0.1 µM, first compound 0.1 µM) of the same molecule?
**A.** 108%

**Q.** What about the viability, T/C (second compound 0.1 µM, first compound 0.316 µM) of the same molecule?
**A.** 108%

**Q.** And the viability, T/C (second compound 0.1 µM, first compound 1 µM)?
**A.** 117%

**Q.** What about the viability, T/C (second compound 0.316 µM, first compound 0.00316 µM) of the same molecule?
**A.** 114%

**Q.** What about the viability, T/C (second compound 0.316 µM, first compound 0.01 µM) of the same molecule?
**A.** 117%

**Q.** And the viability, T/C (second compound 0.316 µM, first compound 0.0316 µM)?
**A.** 110%

**Q.** What about the viability, T/C (second compound 0.316 µM, first compound 0.1 µM) of the same molecule?
**A.** 115%

**Q.** And the viability, T/C (second compound 0.316 µM, first compound 0.316 µM)?
**A.** 107%

**Q.** And the viability, T/C (second compound 0.316 µM, first compound 1 µM)?
**A.** 128%

**Q.** And the viability, T/C (second compound 1 µM, first compound 0.00316 µM)?
**A.** 111%

**Q.** What about the viability, T/C (second compound 1 µM, first compound 0.01 µM) of the same molecule?
**A.** 112%

**Q.** What about the viability, T/C (second compound 1 µM, first compound 0.0316 µM) of the same molecule?
**A.** 107%

**Q.** And the viability, T/C (second compound 1 µM, first compound 0.1 µM)?
**A.** 115%

**Q.** And the viability, T/C (second compound 1 µM, first compound 0.316 µM)?
**A.** 123%

**Q.** What about the viability, T/C (second compound 1 µM, first compound 1 µM) of the same molecule?
**A.** 127%

**Q.** `NC(=O)C(=Cn1cnc(-c2cc(C(F)(F)F)cc(C(F)(F)F)c2)n1)c1cncnc1` + CCN1C(C(=O)NC23CCC(C(=O)O)(CC2)CC3)C(c2cccc(Cl)c2F)C2(C(=O)Nc3cc(Cl)ccc32)C12CCCCC2 was tested. Which IC50 (second compound 0.03 µM) did it give?
**A.** 165 nM

**Q.** And the IC50 (second compound 0.0949 µM)?
**A.** 183 nM

**Q.** And the IC50 (second compound 0.3 µM)?
**A.** 138 nM

**Q.** What about the IC50 (second compound 0.949 µM) of the same molecule?
**A.** 180 nM

**Q.** And the IC50 (second compound 3 µM)?
**A.** 54.3 nM

**Q.** And the viability, T/C (second compound 0.03 µM, first compound 0.000949 µM)?
**A.** 113%

**Q.** And the viability, T/C (second compound 0.03 µM, first compound 0.003 µM)?
**A.** 89.3%

**Q.** What about the viability, T/C (second compound 0.03 µM, first compound 0.00949 µM) of the same molecule?
**A.** 84.8%

**Q.** What about the viability, T/C (second compound 0.03 µM, first compound 0.03 µM) of the same molecule?
**A.** 106%

**Q.** What about the viability, T/C (second compound 0.03 µM, first compound 0.0949 µM) of the same molecule?
**A.** 56.9%

**Q.** And the viability, T/C (second compound 0.03 µM, first compound 0.3 µM)?
**A.** 42.4%

**Q.** What about the viability, T/C (second compound 0.0949 µM, first compound 0.000949 µM) of the same molecule?
**A.** 88.4%

**Q.** What about the viability, T/C (second compound 0.0949 µM, first compound 0.003 µM) of the same molecule?
**A.** 121%

**Q.** What about the viability, T/C (second compound 0.0949 µM, first compound 0.00949 µM) of the same molecule?
**A.** 89.2%

**Q.** And the viability, T/C (second compound 0.0949 µM, first compound 0.03 µM)?
**A.** 95.1%

**Q.** And the viability, T/C (second compound 0.0949 µM, first compound 0.0949 µM)?
**A.** 65%

**Q.** And the viability, T/C (second compound 0.0949 µM, first compound 0.3 µM)?
**A.** 38.6%

**Q.** What about the viability, T/C (second compound 0.3 µM, first compound 0.000949 µM) of the same molecule?
**A.** 80.7%

**Q.** What about the viability, T/C (second compound 0.3 µM, first compound 0.003 µM) of the same molecule?
**A.** 94.9%

**Q.** What about the viability, T/C (second compound 0.3 µM, first compound 0.00949 µM) of the same molecule?
**A.** 93.9%

**Q.** What about the viability, T/C (second compound 0.3 µM, first compound 0.03 µM) of the same molecule?
**A.** 87.3%

**Q.** And the viability, T/C (second compound 0.3 µM, first compound 0.0949 µM)?
**A.** 58.4%

**Q.** What about the viability, T/C (second compound 0.3 µM, first compound 0.3 µM) of the same molecule?
**A.** 32.4%

**Q.** And the viability, T/C (second compound 0.949 µM, first compound 0.000949 µM)?
**A.** 106%

**Q.** What about the viability, T/C (second compound 0.949 µM, first compound 0.003 µM) of the same molecule?
**A.** 87.1%

**Q.** What about the viability, T/C (second compound 0.949 µM, first compound 0.00949 µM) of the same molecule?
**A.** 99.3%

**Q.** And the viability, T/C (second compound 0.949 µM, first compound 0.03 µM)?
**A.** 79.9%

**Q.** What about the viability, T/C (second compound 0.949 µM, first compound 0.0949 µM) of the same molecule?
**A.** 93.5%

**Q.** What about the viability, T/C (second compound 0.949 µM, first compound 0.3 µM) of the same molecule?
**A.** 15.3%

**Q.** And the viability, T/C (second compound 3 µM, first compound 0.000949 µM)?
**A.** 90.1%

**Q.** And the viability, T/C (second compound 3 µM, first compound 0.003 µM)?
**A.** 106%

**Q.** And the viability, T/C (second compound 3 µM, first compound 0.00949 µM)?
**A.** 108%

**Q.** What about the viability, T/C (second compound 3 µM, first compound 0.03 µM) of the same molecule?
**A.** 84%

**Q.** What about the viability, T/C (second compound 3 µM, first compound 0.0949 µM) of the same molecule?
**A.** 18.3%

**Q.** What about the viability, T/C (second compound 3 µM, first compound 0.3 µM) of the same molecule?
**A.** 14.9%

— PubChem BioAssay AID1963438 (Molecular Pharmacology Branch, DTP, NCI, 2024)
